Consider 13 compounds from EP4759807A1, “PROTEOLYSIS TARGETING CHIMERA COMPOUND FOR DEGRADING IRAK4 AND USE THEREOF” (Shenzhen Zhongge Biological Technology Co., Ltd., priority 2023, dated 2025).

Experiment [1] deals with T1, IRAK4 (Homo sapiens, UniProt Q9NWZ3).
T1 sequence (Q9NWZ3 1-460): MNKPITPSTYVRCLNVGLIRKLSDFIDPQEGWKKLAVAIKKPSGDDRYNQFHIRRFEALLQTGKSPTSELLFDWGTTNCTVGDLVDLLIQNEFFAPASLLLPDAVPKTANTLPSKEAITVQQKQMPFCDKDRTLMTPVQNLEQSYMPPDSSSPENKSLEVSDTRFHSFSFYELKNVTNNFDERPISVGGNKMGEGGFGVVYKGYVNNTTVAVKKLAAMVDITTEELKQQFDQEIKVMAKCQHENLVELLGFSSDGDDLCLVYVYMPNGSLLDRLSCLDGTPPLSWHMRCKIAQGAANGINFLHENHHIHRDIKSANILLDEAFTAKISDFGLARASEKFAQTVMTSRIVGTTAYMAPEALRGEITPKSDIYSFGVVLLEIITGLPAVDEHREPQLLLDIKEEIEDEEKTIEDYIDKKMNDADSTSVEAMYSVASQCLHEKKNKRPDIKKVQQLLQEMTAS
Briefly: WB detection of proteolysis (Western Blot, THP-1 cells). The format is cell-based. The gist of the method: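 IRAK4 level in RIPA lysates read by Western blot with Odyssey imaging; values from bell-shaped non-linear fit with two four-parameter sections (Plateau1, Plateau2, Dip, LogEC50_1/2, nH1/2).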

The target in experiment [2] is T1, IRAK4. Put plainly: Hibit fluorescence detection of proteolysis (IRAK4-HiBiT in HEK293T cells). Type of experiment: cell-based. On the set-up: host or cells: HEK293T (ATCC). The following applies: for Dmax: HEK-293T; for DC50: IRAK4-HiBiT, HEK293T cells, 24 h. The gist of the method: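 Degradation read-out: luminescence from lytic HiBiT detection (15 min, room temperature) after 24 h compound exposure (37 °C, 5% CO2) of HEK293T cells transiently expressing IRAK4 fused to a HiBiT tag. Data fitted to a bell-shaped four-parameter model giving two EC50 values.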
For orientation: With HiBiT, luminescence reflects the tagged protein that the partner subunit can reach.

The mark [3] stands for this setting: Western Blot, THP-1 cells, 24 h, read-out: DC50.
Where [4] appears, read: Western Blot, THP-1 cells, 24 h, read-out: Dmax.
The mark [5] stands for this setting: Western Blot, THP-1 cells, 24 h.

Structures can show the parent of a compound that is named as a salt. Some results are limits rather than exact numbers.

As for `C[C@H]1COCCN1c1ccn2ncc(-c3cn(-c4cn([C@H]5CC[C@H](CN6CCN(C7CCN(c8cccc9c8n(C)c(=O)n9C8CCC(=O)NC8=O)CC7)CC6)CC5)nc4C(F)F)nn3)c2n1` (stereo partly shown) [Example 59], the DC50 at IRAK4 [1] (setting [3]) is under 10 nM; on IRAK4 [2] it was under 0.5 nM. In addition, the results for the Dmax on IRAK4 [1] (setting [4]) and on IRAK4 [2] were over 70% and 70 to 80%, respectively.
For `Cn1c(=O)n(C2CCC(=O)NC2=O)c2cccc(N3CCC4(CCN(C[C@H]5CC[C@H](n6cc(-n7cc(-c8cnn9ccc(N%10CCNCC%10)nc89)nn7)c(C(F)F)n6)CC5)C4)CC3)c21` (stereo partly shown) [Example 128, 3-(4-(2-(((1r,4r)-4-(3-(difluoromethyl)-4-(4-(5-(piperazin-1-yl)pyrazolo[1,5-a]pyrimidin-3-yl)-1H-1,2,3-triazol-1-yl)-1H-pyrazol-1-yl)cyclohexyl)methyl)-2,8-diazaspiro[4.5]dec-8-yl)-3-methyl-2-oxo-2,3-dihydro-1H-benzo[d]imidazol-1-yl)piperidine-2,6-dione dihydrochloride] the same measures were under 10 nM, under 0.5 nM, over 70% and over 80%.
For `Cn1c(=O)n(C2CCC(=O)NC2=O)c2cccc(N[C@H]3CC[C@H](N(C)C[C@H]4CC[C@H](n5cc(-n6cc(-n7ccc8cc(C(N)=O)cnc87)nn6)c(C(F)F)n5)CC4)CC3)c21` (stereo partly shown) [Example 102] the same measures were 10 to 30 nM, under 0.5 nM, under 60% and over 80%.
For `Cn1c(=O)n(C2CCC(=O)NC2=O)c2cccc(N3CCN(C4CCN(C[C@H]5CC[C@H](n6cc(-n7cc(-c8cnn9ccc(N%10CCC[C@H](O)C%10)nc89)nn7)c(C(F)F)n6)CC5)CC4)CC3)c21` (stereo partly shown) [Example 144], in that order: under 10 nM, under 0.5 nM, over 70% and over 80%.
`Cn1c(=O)n(C2CCC(=O)NC2=O)c2cccc(N3CCC4(CCN(C[C@H]5CC[C@H](n6cc(-n7cc(-n8ccc9cc(C(N)=O)cnc98)nn7)c(C(F)F)n6)CC5)C4)CC3)c21` (stereo partly shown) [Example 97, 1-(1-(3-(difluoromethyl)-1-((1r,4r)-4-((8-(1-(2,6-dioxopiperidin-3-yl)-3-methyl-2-oxo-3,3-dihydro-1H-benzo[d]imidazol-4-yl)-2,8-diazaspiro[4.5]dec-2-yl)methyl)cyclohexyl)-1H-pyrazol-4-yl)-1H-1-1,2,3-triazolyl)-1H-pyrrolo[2,3-b]pyridine-5-carboxamide]: the Dmax on IRAK4 [1] (THP-1) is over 70%; at IRAK4 [2], over 80%. The DC50 on IRAK4 [1] (setting [5]) is under 10 nM; at IRAK4 [2], under 0.5 nM.
For the compound `Cn1c(=O)n(C2CCC(=O)NC2=O)c2cccc(N3CCC4(CCN(C[C@H]5CC[C@H](n6cc(-n7cc(-c8cnn9ccc(N%10CCC[C@@H](O)C%10)nc89)nn7)c(C(F)F)n6)CC5)C4)CC3)c21` (stereo partly shown) [Example 248], the DC50 at IRAK4 [1] (setting [3]) is under 10 nM; at IRAK4 [2], under 0.5 nM. Also, the Dmax was over 70% on IRAK4 [1] (setting [4]) and over 80% at IRAK4 [2].
For `Cn1c(=O)n(C2CCC(=O)NC2=O)c2cccc(N3CCC4(CCN(C[C@H]5CC[C@H](n6cc(-n7cc(-n8ccc9cc(C(N)=O)cnc98)nn7)c(C(F)F)n6)CC5)CC4)C3)c21` (stereo partly shown) [Example 103, 1-(1-(3-(difluoromethyl)-1-((1r,4r)-4-(2-(1-(2,6-dioxopiperidin-3-yl)-3-methyl-2-oxo-2,3-dihydro-1H-benzo[d]imidazol-4-yl)-2,8-diazaspiro[4.5]dec-8-yl)methyl)cyclohexyl)-1H-pyrazol-4-yl)-1H-1,2,3-triazol-4-yl], in that order: under 10 nM, under 0.5 nM, under 60% and over 80%.
`Cn1c(=O)n(C2CCC(=O)NC2=O)c2cccc(N3CCC(N4CCN(C[C@H]5CC[C@H](n6cc(-n7cc(-c8cnn9ccc(NCCC(C)(C)O)nc89)nn7)c(C(F)F)n6)CC5)CC4)CC3)c21` (stereo partly shown) [Example 125]: the DC50 at IRAK4 [1] (setting [3]) was under 10 nM; on IRAK4 [2] it was under 0.5 nM. The Dmax on IRAK4 [1] (setting [4]) was over 70%; on IRAK4 [2] it was over 80%.
Take `Cn1c(=O)n(C2CCC(=O)NC2=O)c2cccc(N3CCC(N4CCN(C[C@H]5CC[C@H](n6cc(-n7cc(-c8cnn9ccc(N%10CCC(O)CC%10)nc89)nn7)c(C(F)F)n6)CC5)CC4)CC3)c21` (stereo partly shown) [Example 135]: the DC50 at IRAK4 [1] (setting [3]) was under 10 nM; at IRAK4 [2], under 0.5 nM. The Dmax at IRAK4 [1] (setting [4]) was over 70%; on IRAK4 [2], over 80%.
On to `Cn1c(=O)n(C2CCC(=O)NC2=O)c2cccc(N3CCC4(CCN(C[C@H]5CC[C@H](n6cc(-n7cc(-c8cnn9ccc(N%10CCC(C)(O)CC%10)nc89)nn7)c(C(F)F)n6)CC5)C4)CC3)c21` (stereo partly shown) [Compound 238], for which the DC50 at IRAK4 [1] (setting [3]) is 10 to 30 nM; at IRAK4 [2] (read-out: DC50), under 0.5 nM. Further, the Dmax is 60 to 70% on IRAK4 [1] (setting [4]) and over 80% at IRAK4 [2].
As to `Cn1c(=O)n(C2CCC(=O)NC2=O)c2cccc(N[C@H]3CC[C@H](N(C)C[C@H]4CC[C@H](n5cc(-n6cc(-c7cnn8ccc(N9CCOCC9)nc78)nn6)c(C(F)F)n5)CC4)CC3)c21` (stereo partly drawn) [Example 55, 3-(4-(((1R,4r)-4-((((1r,4R)-4-(3-(difluoromethyl)-4-(4-(5-morpholinopyrazolo[1,5-a]pyrimidin-3-yl)-1H-1,2,3-triazol-1-yl)-1H-pyrazol-1-yl)cyclohexyl)methyl)(methyl)amino)cyclohexyl)amino)-3-methyl-2-oxo-2,3-dihydro-1H-benzo[d]imidazol-1-yl)piperidine-2,6-dione], the Dmax on IRAK4 [1] (THP-1) is under 60%; at IRAK4 [2], over 80%. For the same compound, the DC50 is under 10 nM at IRAK4 [1] (setting [5]) and under 0.5 nM at IRAK4 [2].
Turning to `Cn1c(=O)n(C2CCC(=O)NC2=O)c2cccc(N3CCC4(CCN(C[C@H]5CC[C@H](n6cc(-n7cc(-c8cnn9ccc(N%10CCC[C@H](O)C%10)nc89)nn7)c(C(F)F)n6)CC5)C4)CC3)c21` (stereo partly shown) [Example 145], the DC50 is under 10 nM on IRAK4 [1] (setting [3]) and under 0.5 nM on IRAK4 [2]. Also, the values for the Dmax at IRAK4 [1] (setting [4]) and on IRAK4 [2] were over 70% and over 80%, respectively.
For `Cn1c(=O)n(C2CCC(=O)NC2=O)c2cccc(CN3CC4(CCC(CN[C@H]5CC[C@H](n6cc(-n7cc(-c8ccc9cc(C(N)=O)cnn89)nn7)c(C(F)F)n6)CC5)CC4)C3)c21` (stereo partly shown) [Example 60] the same measures were 10 to 30 nM, 1 to 5 nM, over 70% and over 80%.
